Columns and labels:
[1] = Drug level in brain of Sprague-Dawley rat at 10 mg/kg, po administered as single dose via gavage measured at 24 hrs by LC-MS/MS analysis; assay type: ADME, organism-based; settings: read-out: Drug uptake
[2] = Drug level in brain of Sprague-Dawley rat at 10 mg/kg, po administered as single dose via gavage measured at 32 hrs by LC-MS/MS analysis; assay type: ADME, organism-based; settings: read-out: Drug uptake
[3] = Drug level in liver of Sprague-Dawley rat at 10 mg/kg, po administered as single dose via gavage measured at 2 hrs by LC-MS/MS analysis; assay type: ADME, organism-based; settings: read-out: Drug uptake
[4] = Intrinsic metabolic stability in human liver microsomes assessed as metabolic turnover rate per mg protein at 1 uM preincubated for 5 mins followed by NADPH cofactor addition and measured after 30 mins by LC-MS/MS analysis; assay type: ADME, Microsome; settings: 0.5 h
[5] = Drug level in plasma of Sprague-Dawley rat at 10 mg/kg, po administered as single dose via gavage measured at 4 hrs by LC-MS/MS analysis; assay type: ADME, organism-based
[6] = Clearance in Sprague-Dawley rat at 3 mg/kg, iv administered as single dose by LC-MS/MS analysis; assay type: ADME, organism-based; settings: in vivo
[7] = AUC (0 to 48 hrs) in brain of Sprague-Dawley rat at 10 mg/kg, po administered as single dose via gavage by LC-MS/MS analysis; assay type: ADME, organism-based; design: dose 10 mg/kg, time < 48 hr, route oral
[8] = Volume of distribution at steady state in Sprague-Dawley rat at 3 mg/kg, iv or 10 mg/kg, po administered as single dose via gavage by LC-MS/MS analysis; assay type: ADME, organism-based; settings: in vivo, read-out: Vdss
[9] = biological target: T1, Fatty-acid amide hydrolase 1 (Rattus norvegicus, UniProt P97612); experiment: Inhibition of rat FFAH expressed in Escherichia coli using AAMCA as substrate incubated for 1 min measured for 50 mins by fluorescence assay
T1 sequence (P97612 whole entry): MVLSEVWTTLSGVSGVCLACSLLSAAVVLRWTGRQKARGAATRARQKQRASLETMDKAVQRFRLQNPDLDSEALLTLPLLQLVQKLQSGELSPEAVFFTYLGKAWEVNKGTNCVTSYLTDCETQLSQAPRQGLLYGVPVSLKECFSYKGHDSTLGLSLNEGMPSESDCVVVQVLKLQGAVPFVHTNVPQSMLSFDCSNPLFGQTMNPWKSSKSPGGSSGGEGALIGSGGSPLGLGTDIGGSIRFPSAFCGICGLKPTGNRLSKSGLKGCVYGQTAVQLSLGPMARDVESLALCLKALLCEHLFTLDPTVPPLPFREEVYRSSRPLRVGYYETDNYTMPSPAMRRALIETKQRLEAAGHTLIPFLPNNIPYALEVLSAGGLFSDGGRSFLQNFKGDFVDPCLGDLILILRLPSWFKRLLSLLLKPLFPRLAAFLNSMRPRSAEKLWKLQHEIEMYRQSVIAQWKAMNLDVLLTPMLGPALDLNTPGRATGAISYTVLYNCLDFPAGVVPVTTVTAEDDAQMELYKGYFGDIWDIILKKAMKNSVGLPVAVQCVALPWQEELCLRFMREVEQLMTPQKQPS

[10] = biological target: Cytochrome P450 3A4 (Homo sapiens, UniProt P08684); experiment: Inhibition of CYP3A4 in human liver microsomes using testosterone as substrate preincubated for 5 mins followed by NADPH cofactor addition and measured after 10 mins by LC-MS/MS analysis; assay type: ADME
[11] = Volume of distribution at steady state in Sprague-Dawley rat at 3 mg/kg, iv administered as single dose by LC-MS/MS analysis; assay type: ADME, organism-based; settings: in vivo, read-out: Vdss
[12] = Elimination half life in Sprague-Dawley rat at 3 mg/kg, iv or 10 mg/kg, po administered as single dose via gavage by LC-MS/MS analysis; assay type: ADME, organism-based; settings: in vivo, read-out: beta t1/2 (converted)
[13] = Drug level in liver of Sprague-Dawley rat at 10 mg/kg, po administered as single dose via gavage measured at 8 hrs by LC-MS/MS analysis; assay type: ADME, organism-based; settings: read-out: Drug uptake
[14] = biological target: T2, Fatty-acid amide hydrolase 1 (Homo sapiens, UniProt O00519); experiment: Inhibition of human transmembrane domain deficient FFAH expressed in Escherichia coli using AAMCA as substrate incubated for 1 min measured for 50 mins by fluorescence assay
T2 sequence (O00519 whole entry): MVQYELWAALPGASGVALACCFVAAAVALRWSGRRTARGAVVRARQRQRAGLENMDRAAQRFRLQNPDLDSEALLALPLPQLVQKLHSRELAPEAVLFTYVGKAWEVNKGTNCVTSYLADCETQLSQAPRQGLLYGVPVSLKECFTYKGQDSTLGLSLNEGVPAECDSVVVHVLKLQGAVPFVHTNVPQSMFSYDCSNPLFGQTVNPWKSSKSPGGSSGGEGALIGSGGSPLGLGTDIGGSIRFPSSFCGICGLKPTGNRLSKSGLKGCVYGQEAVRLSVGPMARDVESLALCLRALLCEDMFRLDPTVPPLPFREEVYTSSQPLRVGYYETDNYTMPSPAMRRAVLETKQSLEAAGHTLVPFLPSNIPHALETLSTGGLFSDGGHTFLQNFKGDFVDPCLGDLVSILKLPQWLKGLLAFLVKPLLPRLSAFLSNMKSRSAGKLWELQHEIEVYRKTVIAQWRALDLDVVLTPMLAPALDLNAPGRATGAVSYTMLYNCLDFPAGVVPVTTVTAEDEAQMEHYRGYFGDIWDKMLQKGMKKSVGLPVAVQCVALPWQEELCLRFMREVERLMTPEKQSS

[15] = Elimination half life in Sprague-Dawley rat at 3 mg/kg, iv administered as single dose by LC-MS/MS analysis; assay type: ADME, organism-based; settings: in vivo, read-out: beta t1/2 (converted)
[16] = Drug level in liver of Sprague-Dawley rat at 10 mg/kg, po administered as single dose via gavage measured at 48 hrs by LC-MS/MS analysis; assay type: ADME, organism-based; settings: read-out: Drug uptake
[17] = Drug level in brain of Sprague-Dawley rat at 10 mg/kg, po administered as single dose via gavage measured at 2 hrs by LC-MS/MS analysis; assay type: ADME, organism-based; settings: read-out: Drug uptake
[18] = AUC (0 to 48 hrs) in Sprague-Dawley rat at 3 mg/kg, iv administered as single dose by LC-MS/MS analysis; assay type: ADME, organism-based; design: dose 3 mg/kg, time < 48 hr, route intravenous; settings: in vivo
[19] = Oral bioavailability in Sprague-Dawley rat at 10 mg/kg administered as single dose via gavage by LC-MS/MS analysis; assay type: ADME, organism-based; settings: in vivo
[20] = Ratio of AUC (0 to 48 hrs) in brain to plasma of Sprague-Dawley rat at 10 mg/kg, po administered as single dose via gavage by LC-MS/MS analysis; assay type: ADME, organism-based; settings: brain and plasma, read-out: Ratio AUC
[21] = biological target: Cytochrome P450 2C19 (Homo sapiens, UniProt P33261); experiment: Inhibition of CYP2C19 in human liver microsomes using (S)-mephenytoin as substrate preincubated for 5 mins followed by NADPH cofactor addition and measured after 40 mins by LC-MS/MS analysis; assay type: ADME
[22] = Cmax in Sprague-Dawley rat at 10 mg/kg, po administered as single dose via gavage by LC-MS/MS analysis; assay type: ADME, organism-based; design: dose 10 mg/kg, route oral; settings: in vivo
[23] = AUC (0 to 48 hrs) in plasma of Sprague-Dawley rat at 10 mg/kg, po administered as single dose via gavage by LC-MS/MS analysis; assay type: ADME, organism-based; design: time < 48 hr, dose 10 mg/kg, route oral

Chain of Cytochrome P450 2C19 (P33261 whole entry): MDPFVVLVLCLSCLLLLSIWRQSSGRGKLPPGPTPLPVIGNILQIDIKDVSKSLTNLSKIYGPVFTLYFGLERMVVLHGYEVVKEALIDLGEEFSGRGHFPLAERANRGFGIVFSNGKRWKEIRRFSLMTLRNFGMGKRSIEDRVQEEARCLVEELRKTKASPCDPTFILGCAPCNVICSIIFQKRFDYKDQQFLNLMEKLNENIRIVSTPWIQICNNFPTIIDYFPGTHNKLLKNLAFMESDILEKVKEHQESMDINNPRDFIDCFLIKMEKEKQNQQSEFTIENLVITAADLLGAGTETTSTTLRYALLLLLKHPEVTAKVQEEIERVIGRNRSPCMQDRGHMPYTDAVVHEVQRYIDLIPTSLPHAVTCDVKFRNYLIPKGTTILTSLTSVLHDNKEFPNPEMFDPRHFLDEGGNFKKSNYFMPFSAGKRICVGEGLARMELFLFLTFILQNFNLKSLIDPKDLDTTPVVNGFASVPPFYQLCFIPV
Chain of Cytochrome P450 3A4 (P08684 whole entry): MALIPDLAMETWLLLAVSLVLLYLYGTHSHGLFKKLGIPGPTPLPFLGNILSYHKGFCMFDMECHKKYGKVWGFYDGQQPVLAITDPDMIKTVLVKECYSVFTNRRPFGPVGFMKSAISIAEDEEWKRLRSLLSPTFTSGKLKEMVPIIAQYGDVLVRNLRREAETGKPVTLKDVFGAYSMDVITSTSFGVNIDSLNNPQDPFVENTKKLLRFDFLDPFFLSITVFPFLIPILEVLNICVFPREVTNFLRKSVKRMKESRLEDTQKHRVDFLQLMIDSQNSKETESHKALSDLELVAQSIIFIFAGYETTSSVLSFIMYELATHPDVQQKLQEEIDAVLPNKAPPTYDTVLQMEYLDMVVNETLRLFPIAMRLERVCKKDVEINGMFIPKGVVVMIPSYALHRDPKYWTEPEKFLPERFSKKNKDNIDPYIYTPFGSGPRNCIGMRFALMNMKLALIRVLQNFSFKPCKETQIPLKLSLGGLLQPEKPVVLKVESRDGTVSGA

Compound	concentration at 24 h [1] [µM]	concentration at 32 h [2] [µM]	concentration at 2 h [3] [µM]	concentration at 4 h [5] [µM]	clearance [6] [mL/min/kg]	AUC(0-t) at 48 h [7] [µM·h]	Vd [8] [L/kg]	IC50 [10] [nM]	Vd [11] [L/kg]	half-life [12] [h]	concentration at 8 h [13] [µM]	IC50 [14] [nM]	half-life [15] [h]	concentration at 2 h [17] [µM]	AUC(0-t) at 48 h [18] [µM·h]	bioavailability [19] [%]	Kp [20]	IC50 [21] [nM]	Cmax [22] [µM]	AUC(0-t) at 48 h [23] [µM·h]	further results
Nc1ncc(C(=O)N[C@H]2CC/C(=C\c3cccc(Oc4ccc(C(F)(F)F)cn4)c3)CC2)cn1 (stereo not drawn)	4.4	2.3	31	7.8	0.6	192	0.8	> 12500	0.8	17.2	34	0.6	17.2	6.5	155	46	0.8	> 12500	7.8	237	Drug metabolism [4]: ≤ 0.04 nmol/min/mg; IC50 [9]: 6.2 nM; concentration at 48 h [16]: 8.9 µM
Nc1ccc(C(=O)N[C@H]2CC/C(=C\c3cccc(Oc4ccc(C(F)(F)F)cn4)c3)CC2)cn1 (stereo not drawn)	2.5	1.9	72.6	8.6	0.7	135	0.6	> 12500	0.6	9.2	74.9	1.2	9.2	5.1	152	42	0.6	9100	8.8	212	IC50 [9]: 11.6 nM; concentration at 48 h [16]: 16.2 µM
O=C(N[C@H]1CC/C(=C\c2cccc(Oc3ccc(C(F)(F)F)cn3)c2)CC1)c1cccnc1 (stereo not drawn)	1.1		52	3.3	2.4	84	0.9	400	0.9	5.1	32	0.7	5.1	6.1	47	35	1.5	4600	7.2	55	Drug metabolism [4]: 0.04 nmol/min/mg
Cc1cc(C(=O)N[C@H]2CC/C(=C\c3cccc(Oc4ccc(C(F)(F)F)cn4)c3)CC2)cnc1N (stereo not drawn)	1.3	1.2	41	4.8	0.8	80.1	1.2	> 12500	1.2	17	37	1.3	17	2	109	46	0.5	> 12500	6.7	166	Drug metabolism [4]: 0.06 to 0.07 nmol/min/mg; IC50 [9]: 9.2 nM; concentration at 48 h [16]: 9.1 µM

From ChEMBL document CHEMBL4371025, “Discovery and evaluation of novel FAAH inhibitors in neuropathic pain model” (Bioorg Med Chem Lett, 2019)
